Entries after “also recorded” stand apart in the source; their conditions may differ.
Experiments:
468-target kinome screen = test: DiscoverX kinome screen, off-target hits; assay type: binding, human; conditions: 10,000 nM API; for # Hits <10% binding: hit = less than 10% binding (>90% binding inhibition)
Method: (§1) A 468-target kinome screen and a safety screen were carried out to examine the off-target profiles of different kinase inhibitors (DiscoverX, Freemont, Calif.). The kinome screen is a binding assay where API interference of kinase domain/substrate binding is assessed as percent of control. Less than 10% binding (or >90% binding inhibition) is most biologically relevant and considered as a ‘hit’. BA-2017 only had 7 off-target hits compared to BA-1049 and Netarsudil, which both had 11 hits (Table 1) (Studirvant et al. 2016 Bioorg Med Chem Lett. 26(10):2475-2480). […] Published data for Netarsudil were with 200 times less API. […] The NET activity likely helps to decrease IOP but might increase hyperemia, while the SERT activity might have long-term safety consequences (Costagliola et al. 2004 CNS drugs 18(8): p. 475-484).
(§2) In the kinome screen BA-2017 had fewer off-target hits (Table 1) than BA-1049. […] An interesting hit from the kinome screen was on Abl (Table 1), an oncogene that also regulates many cellular activities, including vascular leakage.

[1] = molecular target: T1, norepinephrine transporter (NET) (Homo sapiens, UniProt P23975); test: Safety screen; assay type: biochemical; conditions: 10,000 nM API
T1 construct: purchased DiscoverX
T1 sequence (P23975 whole entry): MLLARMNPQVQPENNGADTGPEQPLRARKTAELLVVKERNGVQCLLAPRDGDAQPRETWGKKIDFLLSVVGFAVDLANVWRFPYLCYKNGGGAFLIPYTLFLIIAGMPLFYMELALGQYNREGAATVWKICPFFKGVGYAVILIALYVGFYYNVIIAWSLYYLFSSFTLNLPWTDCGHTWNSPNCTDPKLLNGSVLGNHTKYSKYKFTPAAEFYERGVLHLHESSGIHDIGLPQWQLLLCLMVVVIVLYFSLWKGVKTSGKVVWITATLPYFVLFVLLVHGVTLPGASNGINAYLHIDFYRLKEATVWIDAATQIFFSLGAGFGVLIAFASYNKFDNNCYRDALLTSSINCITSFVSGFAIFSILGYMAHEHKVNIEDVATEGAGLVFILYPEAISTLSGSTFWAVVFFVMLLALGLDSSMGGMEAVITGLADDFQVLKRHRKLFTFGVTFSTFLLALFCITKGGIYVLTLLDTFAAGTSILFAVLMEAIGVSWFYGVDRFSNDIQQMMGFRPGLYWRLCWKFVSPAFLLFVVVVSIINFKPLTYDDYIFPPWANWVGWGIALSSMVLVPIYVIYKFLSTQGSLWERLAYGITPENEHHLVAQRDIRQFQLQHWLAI
Method: as §1
(§3) These targets include GPCRs, transporters, ion channels, nuclear receptors, non-kinase enzymes.

[2] = molecular target: T2, serotonin transporter (SERT) (Homo sapiens, UniProt P31645); test: Safety screen; assay type: biochemical; conditions: 10,000 nM API
T2 construct: purchased DiscoverX
T2 sequence (P31645 whole entry): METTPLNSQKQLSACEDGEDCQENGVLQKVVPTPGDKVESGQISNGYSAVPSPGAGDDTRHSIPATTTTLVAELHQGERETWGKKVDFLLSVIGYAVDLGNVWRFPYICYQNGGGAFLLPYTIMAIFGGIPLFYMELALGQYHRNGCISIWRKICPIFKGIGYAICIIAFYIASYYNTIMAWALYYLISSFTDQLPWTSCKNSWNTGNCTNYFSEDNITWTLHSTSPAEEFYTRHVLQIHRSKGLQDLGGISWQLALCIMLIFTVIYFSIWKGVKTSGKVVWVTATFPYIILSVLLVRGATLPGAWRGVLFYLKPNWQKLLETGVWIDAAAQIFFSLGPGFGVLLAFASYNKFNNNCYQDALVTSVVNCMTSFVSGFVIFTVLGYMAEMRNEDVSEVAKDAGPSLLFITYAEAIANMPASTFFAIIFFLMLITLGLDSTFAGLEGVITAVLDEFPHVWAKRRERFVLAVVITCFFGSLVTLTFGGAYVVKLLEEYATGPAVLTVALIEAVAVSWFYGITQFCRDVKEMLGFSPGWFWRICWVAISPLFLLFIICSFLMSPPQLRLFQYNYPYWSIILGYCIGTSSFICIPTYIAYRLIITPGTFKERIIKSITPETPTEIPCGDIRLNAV
Method: as §1, §3

PKA [3] = molecular target: T3, PKA (Homo sapiens, UniProt P17612); test: Single dose inhibition assay of key AGC class kinases; assay type: biochemical; conditions: 10 μM API
Method: Molecular modeling and rational drug design were used to create and screen over 50 ROCK inhibitors. These ROCK inhibitors were screened for selectivity for ROCK2 and ability to promote neurite outgrowth. Several lead inhibitors came out of this screen and further screened for inhibition of key AGC class kinases by a single dose inhibition assay performed with 10 μM active pharmaceutical ingredient (API). The lead compound is chiral. […] They have different selectivity for ROCK2 (Table 2) and different off-target profiles (Table 1; FIG. 1).

GRK1 = molecular target: T4, GRK1 (Homo sapiens, UniProt Q15835); test: DiscoverX kinome screen; assay type: binding
T4 construct: are incubated with DNA-tagged kinase domains tagged; DNA tag; purchased DiscoverX
T4 sequence (Q15835 190-455 limits assumed): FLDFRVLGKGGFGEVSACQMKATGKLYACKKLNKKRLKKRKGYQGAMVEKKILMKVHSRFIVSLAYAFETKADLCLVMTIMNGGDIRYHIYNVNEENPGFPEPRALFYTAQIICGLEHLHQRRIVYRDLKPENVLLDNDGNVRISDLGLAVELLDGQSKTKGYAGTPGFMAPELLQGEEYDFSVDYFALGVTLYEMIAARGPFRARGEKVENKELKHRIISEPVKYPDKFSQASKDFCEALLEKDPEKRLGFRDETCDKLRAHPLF
Method: as §1, §2

PKC Δ = molecular target: T5, PKC Δ (Homo sapiens, UniProt Q05655); test: DiscoverX kinome screen; assay type: binding; conditions: 10,000 nM API
T5 construct: are incubated with DNA-tagged kinase domains tagged; DNA tag; purchased DiscoverX
T5 sequence (Q05655 349-603 limits assumed, stated change not applied): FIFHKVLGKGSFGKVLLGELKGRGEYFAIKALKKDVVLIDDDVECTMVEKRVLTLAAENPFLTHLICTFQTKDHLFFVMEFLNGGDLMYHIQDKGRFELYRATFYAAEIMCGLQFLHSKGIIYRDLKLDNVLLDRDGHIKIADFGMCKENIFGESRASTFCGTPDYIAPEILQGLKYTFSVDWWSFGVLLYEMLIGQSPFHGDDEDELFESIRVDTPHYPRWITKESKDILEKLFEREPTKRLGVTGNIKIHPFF
Method: as §1, §2

PKC ε = molecular target: T6, PKC ε (Homo sapiens, UniProt Q02156); test: DiscoverX kinome screen; assay type: binding; conditions: 10,000 nM API
T6 construct: are incubated with DNA-tagged kinase domains tagged; DNA tag; purchased DiscoverX
T6 sequence (Q02156 408-668 limits assumed): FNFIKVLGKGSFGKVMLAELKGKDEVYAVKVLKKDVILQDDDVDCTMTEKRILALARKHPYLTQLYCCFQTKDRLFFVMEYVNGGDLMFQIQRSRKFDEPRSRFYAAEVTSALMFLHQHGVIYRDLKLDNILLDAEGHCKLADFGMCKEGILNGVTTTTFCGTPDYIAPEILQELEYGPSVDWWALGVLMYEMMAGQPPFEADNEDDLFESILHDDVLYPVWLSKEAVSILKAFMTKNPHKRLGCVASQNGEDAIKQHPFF
Method: as §1, §2

[4] = Oral dosing of cynomolgus monkeys, systemic side effects; assay type: in vivo; conditions: 18 mg/kg oral gavage, 4 monkeys
Method: Oral dosing of 4 cynomolgus monkeys dosed with 18 mg/kg oral BA-1049 by oral gavage were completed to understand potential systemic side effects. The only side effects noticed at this dose was squinting by the monkeys.

[5] = Brain and blood vessel exposure after oral administration; assay type: in vivo, Sprague Dawley rats
Method: (§4) Adult Sprague Dawley rats (Charles River Laboratories) were used for this experiment. […] One g of tissue was homogenized in 1 mL of 1×PBS. Homogenates were precipitated by pipetting 200 μL of homogenate into a tube using aseptically cut off 1000 μL pipette tips to prevent clogging. Samples are further diluted with 100 μL PBS to aid in precipitation. 900 μL of cold methanol was added to each sample and samples were vortexed for 5 to 10 seconds. Samples were placed at 4° C. for 30 to 40 min and then centrifuged at 10,000 g for 15 min at 4° C. The supernatant is collected and stored at −80° C. until analyzed.
Pathological angiogenesis that occurs in the retina is a major feature of leading blinding diseases, and particularly associated with diabetic retinopathy and age-related macular degeneration.

ROCK2 [6] = molecular target: T7, ROCK2 (Homo sapiens, UniProt O75116); test: IC50 determined at 10 μM ATP; assay type: biochemical; set-up: purchased Eurofins Testing (Dundee, Scotland, UK); conditions: for IC50: 10 μM ATP (below Km), * = preliminary
Text: The data in Table 2 were obtained at ATP concentration below those corresponding to Km.
Target sequence in this assay (O75116 whole entry): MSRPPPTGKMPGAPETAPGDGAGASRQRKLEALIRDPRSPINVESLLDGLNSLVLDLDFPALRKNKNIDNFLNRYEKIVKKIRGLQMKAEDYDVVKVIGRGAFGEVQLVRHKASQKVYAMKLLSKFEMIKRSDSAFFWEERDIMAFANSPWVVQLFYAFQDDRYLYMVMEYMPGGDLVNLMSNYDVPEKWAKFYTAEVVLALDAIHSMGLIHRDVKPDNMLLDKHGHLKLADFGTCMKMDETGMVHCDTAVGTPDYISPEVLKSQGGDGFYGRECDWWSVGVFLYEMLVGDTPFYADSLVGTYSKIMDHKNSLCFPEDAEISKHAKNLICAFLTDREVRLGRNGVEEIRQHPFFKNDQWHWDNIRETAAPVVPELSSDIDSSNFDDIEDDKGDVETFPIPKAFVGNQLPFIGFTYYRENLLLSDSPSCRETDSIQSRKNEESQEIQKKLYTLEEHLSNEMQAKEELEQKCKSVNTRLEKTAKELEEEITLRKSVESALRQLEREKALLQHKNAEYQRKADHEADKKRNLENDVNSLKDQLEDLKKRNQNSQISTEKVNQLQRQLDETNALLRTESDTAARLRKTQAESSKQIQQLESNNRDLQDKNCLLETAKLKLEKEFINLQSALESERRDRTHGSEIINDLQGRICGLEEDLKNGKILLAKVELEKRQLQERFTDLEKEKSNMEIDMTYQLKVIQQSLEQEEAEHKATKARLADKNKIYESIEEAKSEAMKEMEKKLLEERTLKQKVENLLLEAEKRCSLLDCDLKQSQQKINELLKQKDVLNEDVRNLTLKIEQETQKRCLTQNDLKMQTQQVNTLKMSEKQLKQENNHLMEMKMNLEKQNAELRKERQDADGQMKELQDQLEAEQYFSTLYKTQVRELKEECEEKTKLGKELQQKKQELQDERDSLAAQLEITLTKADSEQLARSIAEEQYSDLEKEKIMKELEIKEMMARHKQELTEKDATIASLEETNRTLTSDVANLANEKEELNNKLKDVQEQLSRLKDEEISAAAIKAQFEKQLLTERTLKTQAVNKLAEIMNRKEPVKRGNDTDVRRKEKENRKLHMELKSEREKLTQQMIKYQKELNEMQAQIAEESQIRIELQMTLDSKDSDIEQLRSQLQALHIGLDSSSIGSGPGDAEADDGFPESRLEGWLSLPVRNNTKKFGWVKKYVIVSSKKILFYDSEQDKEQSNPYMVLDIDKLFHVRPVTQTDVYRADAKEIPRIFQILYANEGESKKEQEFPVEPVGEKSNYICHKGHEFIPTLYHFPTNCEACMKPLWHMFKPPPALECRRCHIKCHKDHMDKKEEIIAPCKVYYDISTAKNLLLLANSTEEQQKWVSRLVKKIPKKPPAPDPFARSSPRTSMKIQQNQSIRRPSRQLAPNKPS

ROCK1 [7] = molecular target: T8, ROCK1 (Homo sapiens, UniProt Q13464); test: IC50 determined at 10 μM ATP; assay type: biochemical; set-up: purchased Eurofins Testing (Dundee, Scotland, UK); conditions: 10 μM ATP (below Km)
ROCK2 [8] = molecular target: T7, ROCK2; test: Direct filter-binding radiometric kinase assay (Eurofins) at Km ATP; assay type: biochemical; set-up: purchased Eurofins Testing (Dundee, Scotland, UK); conditions: for ROCK1/ROCK2 (fold difference): IC50 at respective Km ATP
Method: ROCK1 and ROCK2 IC50 determinations were made using ATP concentrations at the Km ATP of 70 μM and 15 μM for ROCK1 and ROCK2, respectively.
For the data shown in Table 4, IC50 inhibition curves were performed at the respective Km for ATP for both ROCK1 and ROCK2. Performing these assays at the Km of ATP gives a better representation of the inhibitory activity. Other comparisons where differing kinases are tested at a single ATP concentration can potentially misrepresent the comparative efficacy since enzyme inhibitory activity tested below the Km for ATP of the enzyme, produces a circumstance where the enzyme is actually not constantly bound with ATP and the reaction velocity becomes sub-optimal.
Target sequence in this assay (O75116 whole entry): as above

ROCK1 [9] = molecular target: T8, ROCK1; test: DiscoverX kinome screen; assay type: binding; set-up: are incubated with DNA-tagged kinase domains tagged; DNA tag; purchased DiscoverX; conditions: 10,000 nM API
Method: as §1, §2
Target sequence in this assay (Q13464 76-338 limits assumed): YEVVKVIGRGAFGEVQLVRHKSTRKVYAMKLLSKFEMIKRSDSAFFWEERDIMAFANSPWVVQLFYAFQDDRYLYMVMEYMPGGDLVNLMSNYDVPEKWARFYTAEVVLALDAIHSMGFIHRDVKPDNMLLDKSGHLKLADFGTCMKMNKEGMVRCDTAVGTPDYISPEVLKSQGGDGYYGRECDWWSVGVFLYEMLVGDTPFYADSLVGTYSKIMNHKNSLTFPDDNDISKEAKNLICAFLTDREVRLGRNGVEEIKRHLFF

ROCK2 [10] = molecular target: T7, ROCK2; test: DiscoverX kinome screen; assay type: binding; set-up: are incubated with DNA-tagged kinase domains tagged; DNA tag; purchased DiscoverX; conditions: 10,000 nM API
Method: as §1, §2
Target sequence in this assay (O75116 92-354 limits assumed): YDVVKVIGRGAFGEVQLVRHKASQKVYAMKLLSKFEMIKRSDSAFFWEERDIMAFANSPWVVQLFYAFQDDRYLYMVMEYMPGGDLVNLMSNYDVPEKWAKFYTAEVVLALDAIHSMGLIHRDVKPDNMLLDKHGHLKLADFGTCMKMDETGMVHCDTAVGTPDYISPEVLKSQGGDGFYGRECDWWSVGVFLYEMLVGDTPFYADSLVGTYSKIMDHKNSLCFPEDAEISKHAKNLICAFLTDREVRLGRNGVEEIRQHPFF

[11] = Penetration and distribution in ocular tissues after topical instillation (LC-MS); assay type: in vivo, Sprague Dawley rats; conditions: topical 3% solution of metabolite, 20 minutes
Method: as §4
For the optic nerve sample, the concentration is shown per length of optic nerve (right y-axis). […] Therefore, drug is available in the retina and optic nerve for treating these tissues affected in glaucoma and other retinal diseases.
In FIG. 14 we examined the ability of metabolite to penetrate the ocular tissues of the eye after topical instillation of a 3% solution of metabolite. In comparison with FIG. 13, that also the metabolite has adequate penetration into ocular and CNS tissue. Of particular note is the penetration in the retina and presence in the optic nerve. All compounds were given topically as eye drops to the eye of adult Sprague Dawley rats. Twenty minutes later the indicated tissues were removed and the parent compound and active metabolite were analyzed by LC/MS.

[12] = followed 24 months; cited from earlier work
PKA [13] = molecular target: T3, PKA; conditions: cited from earlier work
[14] = cited from earlier work
[15] = clinical studies; cited from earlier work
PKA, PKC and CaMKII = conditions: cited from earlier work

SMILES | Kinome Screen Other (other off-target kinase) (468-target kinome screen) | # Hits <10% binding (468-target kinome screen) | Safety Screen % inhibition NET [1] | Safety Screen % inhibition SERT [2] | Kinome Screen % inhibition PKC Δ (PKC Δ) | Kinome Screen % inhibition PKC ε (PKC ε) | Exposure in blood vessels [5] | IC50 (ROCK2 [6]) | ROCK1/ROCK2 (fold difference) (ROCK2 [8]) | Kinome Screen % inhibition ROCK1 (ROCK1 [9]) | Kinome Screen % inhibition ROCK2 (ROCK2 [10]) | Hyperemia in humans [15] | further results
C[C@@H](N)C1CCN(S(=O)(=O)c2cccc3cnccc23)CC1 [BA-1049] | none | 11 | none | none | <70% | 95% | accumulate at high concentrations in blood vessels | 240 nM | 43.4 | >99% | >99% | – | Inhibition of PKA (PKA [3]): Neither compound inhibited PKA; Off-target activity on GRK1 (GRK1): has some activity toward G-protein couple protein kinase1; also recorded: showed binding to G-protein couple protein kinase1 (GRK1); Side effects [4]: squinting; Brain penetrance [5]: is able to cross the blood brain barrier; Fold-difference (ROCK2 [6]; ROCK1 vs ROCK2 IC50 at 10 μM ATP): 16; IC50 (ROCK1 [7]): 3900 nM; IC50 (ROCK2 [8]; ATP at Km, 15 μM, * = higher purity BA-1076): 599 nM
C[C@@H](N)C1CCN(S(=O)(=O)c2cccc3c(=O)[nH]ccc23)CC1 [BA-2017] | GRK1 | 7 | none | none | <85% | 94.7% | accumulate at high concentrations in blood vessels | 50 nM | 16.5 | >99% | >99% | – | Penetration into ocular tissues [11]: can penetrate ocular tissue
C[C@@H](N)[C@H]1CC[C@H](C(=O)Nc2ccncc2)CC1 [Compound Y27432, Y27432] | – | – | – | – | – | – | – | – | – | – | – | – | Corneal clarity and vision [12]: corneal clarity improved and vision improved
C[C@@H](N)[C@H]1CC[C@H](C(=O)Nc2ccncc2)CC1 [Compound Y-27632, Y-27632] | – | – | – | – | – | – | – | – | – | – | – | – | Binding to PKA (PKA [13]): all bind PKA
Cc1ccc(C(=O)OCc2ccc([C@@H](CN)C(=O)Nc3ccc4cnccc4c3)cc2)c(C)c1 [Netarsudil] | – | – | – | – | – | – | – | – | – | – | – | cause hyperemia (red eyes) as a major side effect | Duration of hyperemia on day 1 ([14]; 0.04% Netarsudil): at least 8 hours; Duration of mild hyperemia ([14]; Dutch belted rabbits): 4 to 8 h
C[C@H]1CNCCCN1S(=O)(=O)c1cccc2cncc(F)c12 [Ripasudil] | – | – | – | – | – | – | – | – | – | – | – | more frequent and of longer duration than Netarsudil; also recorded: cause hyperemia (red eyes) as a major side effect | Inhibition of PKA, PKC and CaMKII (PKA, PKC and CaMKII): both inhibit PKA, PKC and CaMKII

Reference: patent publication US10537567B2, “Kinase inhibitors for treatment of disease” (BioAxone BioSciences, Inc., priority 2017, dated 2020)
